Laboratory results as given in patent publication US20100029619A1, “FUSED HETEROCYCLIC COMPOUND” (TAKEDA PHARMACEUTICAL COMPANY LIMTED, priority 2006, published 2010).

| Compound | melting point |
| --- | --- |
| CC(C)(C)c1ccc(C(=O)Nc2cn3nc(-n4cnc(Cl)c4Cl)ccc3n2)cc1 [Example 146, 4-tert-butyl-N-[6-(4,5-dichloro-1H-imidazol-1-yl)imidazo[1,2-b]pyridazin-2-yl]benzamide] | 281 to 282 °C |
| CC(C)(C)c1ccc(C(=O)Nc2cn3nc(-n4cnc(Br)c4)ccc3n2)cc1 [Example 147, N-[6-(4-bromo-1H-imidazol-1-yl)imidazo[1,2-b]pyridazin-2-yl]-4-tert-butylbenzamide] | 306 to 307 °C |
| CC(C)(C)c1ccc(C(=O)Nc2cn3nc(N)ccc3n2)cc1 [Example 148, N-(6-aminoimidazo[1,2-b]pyridazin-2-yl)-4-tert-butylbenzamide] | 267 to 268 °C |
| CC(=O)c1ccc2nc(NC(=O)c3ccc(C(C)(C)C)cc3)cn2n1 [Example 151, N-(6-acetylimidazo[1,2-b]pyridazin-2-yl)-4-tert-butylbenzamide] | 237 to 238 °C |
| CC(C)(C)c1ccc(C(=O)Nc2cn3nc(NCc4ccncc4)ccc3n2)cc1 [Example 159, 4-tert-butyl-N-{6-[(pyridin-4-ylmethyl)amino]imidazo[1,2-b]pyridazin-2-yl}benzamide] | 222 to 223 °C |
| CC(C)(C)c1ccc(C(=O)Nc2cn3nc(NCc4cccnc4)ccc3n2)cc1 [Example 160, 4-tert-butyl-N-{6-[(pyridin-3-ylmethyl)amino]imidazo[1,2-b]pyridazin-2-yl}benzamide] | 232 to 233 °C |
| CC(C)(C)c1ccc(C(=O)Nc2cn3nc(NCc4ccccn4)ccc3n2)cc1 [Example 161, 4-tert-butyl-N-{6-[(pyridin-2-ylmethyl)amino]imidazo[1,2-b]pyridazin-2-yl}benzamide] | 196 to 197 °C |
| CC(C)(C)c1ccc(C(=O)Nc2cn3nc(NCCc4ccncc4)ccc3n2)cc1 [Example 162, 4-tert-butyl-N-{6-[(2-pyridin-4-ylethyl)amino]imidazo[1,2-b]pyridazin-2-yl}benzamide] | 279 °C |
| CC(C)(C)c1ccc(C(=O)Nc2cn3nc(NCCc4cccnc4)ccc3n2)cc1 [Example 163, 4-tert-butyl-N-{6-[(2-pyridin-3-ylethyl)amino]imidazo[1,2-b]pyridazin-2-yl}benzamide] | 231 °C |
| CC(C)(C)c1ccc(C(=O)Nc2cn3nc(NC4CCCCC4)ccc3n2)cc1 [Example 164, 4-tert-butyl-N-[6-(cyclohexylamino)imidazo[1,2-b]pyridazin-2-yl]benzamide] | 296 to 297 °C |
| CC(C)(C)c1ccc(C(=O)Nc2cn3nc(NC4CCCC4)ccc3n2)cc1 [Example 165, 4-tert-butyl-N-[6-(cyclopentylamino)imidazo[1,2-b]pyridazin-2-yl]benzamide] | 272 to 273 °C |
| CC(C)(C)c1ccc(C(=O)Nc2cn3nc(NC4CC4)ccc3n2)cc1 [Example 166, 4-tert-butyl-N-[6-(cyclopropylamino)imidazo[1,2-b]pyridazin-2-yl]benzamide] | 274 to 275 °C |
| CCCNc1ccc2nc(NC(=O)c3ccc(C(C)(C)C)cc3)cn2n1 [Example 167, 4-tert-butyl-N-[6-(propylamino)imidazo[1,2-b]pyridazin-2-yl]benzamide] | 243 to 244 °C |
| CN1CCC(Nc2ccc3nc(NC(=O)c4ccc(C(C)(C)C)cc4)cn3n2)CC1 [Example 168, 4-tert-butyl-N-{6-[(1-methylpiperidin-4-yl)amino]imidazo[1,2-b]pyridazin-2-yl}benzamide] | 275 to 277 °C |
| CC(C)(C)c1ccc(C(=O)Nc2cn3nc(NCCO)ccc3n2)cc1 [Example 169, 4-tert-butyl-N-{6-[(2-hydroxyethyl)amino]imidazo[1,2-b]pyridazin-2-yl}benzamide] | 231 to 233 °C |
| CC(C)(C)c1ccc(C(=O)Nc2cn3nc(NC4CCNC4)ccc3n2)cc1 (stereo not drawn) [Example 170, 4-tert-butyl-N-{6-[(pyrrolidin-3-yl)amino]imidazo[1,2-b]pyridazin-2-yl}benzamide] | 264 to 265 °C |
| CC(C)(C)c1ccc(C(=O)Nc2cn3nc(NC4CCNCC4)ccc3n2)cc1 [Example 171, 4-tert-butyl-N-[6-(piperidin-4-ylamino)imidazo[1,2-b]pyridazin-2-yl]benzamide] | 242 to 243 °C |
| CNCCNc1ccc2nc(NC(=O)c3ccc(C(C)(C)C)cc3)cn2n1 [Example 172, 4-tert-butyl-N-(6-{[2-(methylamino)ethyl]amino}imidazo[1,2-b]pyridazin-2-yl)benzamide] | 200 to 201 °C |
| Cn1cc(-c2ccc3nc(NC(=O)c4ccc(C(C)(C)C)cc4)cn3n2)cn1 [Example 173, 4-tert-butyl-N-[6-(1-methyl-1H-pyrazol-4-yl)imidazo[1,2-b]pyridazin-2-yl]benzamide] | 245 to 246 °C |
| CC(C)(C)c1ccc(C(=O)Nc2cn3nc(-c4cn[nH]c4)ccc3n2)cc1 [Example 174, 4-tert-butyl-N-[6-(1H-pyrazol-4-yl)imidazo[1,2-b]pyridazin-2-yl]benzamide] | 358 to 362 °C (dec.) |

| Compound | melting point |
| --- | --- |
| Cn1cc(-c2ccc3nc(NC(=O)c4ccc(C(C)(C)C)nc4)cn3n2)cn1 [Example 176, 6-tert-butyl-N-[6-(1-methyl-1H-pyrazol-4-yl)imidazo[1,2-b]pyridazin-2-yl]nicotinamide] | 251 to 252 °C |
| CC(C)(C)c1ccc(C(=O)Nc2cn3nc(-c4cnn(CCO)c4)ccc3n2)cc1 [Example 178, 4-tert-butyl-N-{6-[1-(2-hydroxyethyl)-1H-pyrazol-4-yl]imidazo[1,2-b]pyridazin-2-yl}benzamide] | 226 to 229 °C |
| Cc1cccc2nc(NC(=O)c3ccc(C(C)(C)C(=O)O)cc3)cn12 [Example 186, 2-methyl-2-{4-[(5-methylimidazo[1,2-a]pyridin-2-yl)carbamoyl]phenyl}propanoic acid] | 282 to 283 °C |
| Cc1cccc2nc(NC(=O)c3ccc(C(C)(C)CCC(=O)O)cc3)cn12 [Example 187, 4-methyl-4-(4-{[(5-methylimidazo[1,2-a]pyridin-2-yl)amino]carbonyl}phenyl)pentanoic acid] | 260 °C |
| Cc1cccc2nc(NC(=O)c3ccc(C4(C(=O)O)CCC4)cc3)cn12 [Example 188, 1-{4-[(5-methylimidazo[1,2-a]pyridin-2-yl)carbamoyl]phenyl}cyclobutanecarboxylic acid] | 272 °C |
| O=C(Nc1cn2cc(Cl)ccc2n1)c1ccc(C2(C(=O)O)CC2)cc1 [Example 189, 1-{4-[(6-chloroimidazo[1,2-a]pyridin-2-yl)carbamoyl]phenyl}cyclopropanecarboxylic acid] | 330 to 331 °C |
| O=C(Nc1cn2cc(Cl)ccc2n1)c1ccc(C2(C(=O)O)CCC2)cc1 [Example 190, 1-{4-[(6-chloroimidazo[1,2-a]pyridin-2-yl)carbamoyl]phenyl}cyclobutanecarboxylic acid] | 317.7 °C (dec.) |
| O=C(Nc1cn2cc(Cl)ccc2n1)c1ccc(C2(C(=O)O)CCCC2)cc1 [Example 191, 1-{4-[(6-chloroimidazo[1,2-a]pyridin-2-yl)carbamoyl]phenyl}cyclopentanecarboxylic acid] | 313 °C (dec.) |
| O=C(Nc1cn2cc(Cl)ccc2n1)c1ccc(C2(C(=O)O)CCCCC2)cc1 [Example 192, 1-(4-{[(6-chloroimidazo[1,2-a]pyridin-2-yl)amino]carbonyl}phenyl)cyclohexanecarboxylic acid] | 288 °C |
| CC(C)(C)c1ccc(C(=O)Nc2cn3c(CO)cccc3n2)cc1 [Example 194, 4-tert-butyl-N-[5-(hydroxymethyl)imidazo[1,2-a]pyridin-2-yl]benzamide] | 229 to 230 °C |
| CC(C)(CCc1noc(=O)[nH]1)c1ccc(C(=O)Nc2cn3cc(-n4ccnc4)ccc3n2)cc1 [Example 437, 4-[1,1-dimethyl-3-(5-oxo-4,5-dihydro-1,2,4-oxadiazol-3-yl)propyl]-N-[6-(1H-imidazol-1-yl)imidazo[1,2-a]pyridin-2-yl]benzamide] | 283 to 284 °C |
| Cc1ccc2nc(NC(=O)c3ccc(C(C)(C)CCC#N)cc3)cn2c1 [Example 438, 4-(3-cyano-1,1-dimethylpropyl)-N-(6-methylimidazo[1,2-a]pyridin-2-yl)benzamide] | 194 to 195 °C |
| Cc1ccc2nc(NC(=O)c3ccc(C(C)(C)CCc4nnn[nH]4)cc3)cn2c1 [Example 439, 4-[1,1-dimethyl-3-(1H-tetrazol-5-yl)propyl]-N-(6-methylimidazo[1,2-a]pyridin-2-yl)benzamide] | 245 to 246 °C |
| Cc1ccc2nc(NC(=O)c3ccc(C(C)(C)CCc4noc(=O)[nH]4)cc3)cn2c1 [Example 440, 4-[1,1-dimethyl-3-(5-oxo-4,5-dihydro-1,2,4-oxadiazol-3-yl)propyl]-N-(6-methylimidazo[1,2-a]pyridin-2-yl)benzamide] | 267 to 268 °C |
| CC(C)(CCC#N)c1ccc(C(=O)Nc2cn3c4c(ccc3n2)OCC4)cc1 [Example 441, 4-(3-cyano-1,1-dimethylpropyl)-N-(1,2-dihydrofuro[2,3-e]imidazo[1,2-a]pyridin-7-yl)benzamide] | 227 to 228 °C |
| CC(C)(CCC#N)c1ccc(C(=O)Nc2cn3cc(C(F)(F)F)ccc3n2)cc1 [Example 445, 4-(3-cyano-1,1-dimethylpropyl)-N-[6-(trifluoromethyl)imidazo[1,2-a]pyridin-2-yl]benzamide] | 233 to 234 °C |
| CC(C)(CCc1noc(=O)[nH]1)c1ccc(C(=O)Nc2cn3cc(C(F)(F)F)ccc3n2)cc1 [Example 447, 4-[1,1-dimethyl-3-(5-oxo-4,5-dihydro-1,2,4-oxadiazol-3-yl)propyl]-N-[6-(trifluoromethyl)imidazo[1,2-a]pyridin-2-yl]benzamide] | 268 to 270 °C |
| CC(C)(CNC(=O)C(O)CO)c1ccc(C(=O)Nc2cn3cc(Cl)ccc3n2)cc1 (stereo not drawn) [Example 450, N-(6-chloroimidazo[1,2-a]pyridin-2-yl)-4-[2-(glyceroylamino)-1,1-dimethylethyl]benzamide] | 228 to 229 °C |
| CC(C)(CNC(=O)Cc1cnc[nH]1)c1ccc(C(=O)Nc2cn3cc(Cl)ccc3n2)cc1 [Example 451, N-(6-chloroimidazo[1,2-a]pyridin-2-yl)-4-{2-[(1H-imidazol-5-ylacetyl)amino]-1,1-dimethylethyl}benzamide] | 270 °C (dec.) |
